Laboratory results taken from patent publication US7858635B2 (priority 2005, dated 2010).
Like-named read-outs stand apart in the source and are kept apart here.

How the values were obtained:
[1] = target: T1, M4 muscarinic receptor (Homo sapiens, UniProt P08173); assay: Functional mobilization of intracellular calcium (FLIPR, Fluo-3), M4-CHO cells; format: cell-based; conditions: for Emax: 100% efficacy is the maximum response obtained with the Carbachol control, read-out: M4 Efficacy
T1 construct: expressed in transfected cells; host or cells: CHO cells (M4-CHO, under puromycin, zeocin and blasticidin selection)
T1 sequence (P08173 1-479): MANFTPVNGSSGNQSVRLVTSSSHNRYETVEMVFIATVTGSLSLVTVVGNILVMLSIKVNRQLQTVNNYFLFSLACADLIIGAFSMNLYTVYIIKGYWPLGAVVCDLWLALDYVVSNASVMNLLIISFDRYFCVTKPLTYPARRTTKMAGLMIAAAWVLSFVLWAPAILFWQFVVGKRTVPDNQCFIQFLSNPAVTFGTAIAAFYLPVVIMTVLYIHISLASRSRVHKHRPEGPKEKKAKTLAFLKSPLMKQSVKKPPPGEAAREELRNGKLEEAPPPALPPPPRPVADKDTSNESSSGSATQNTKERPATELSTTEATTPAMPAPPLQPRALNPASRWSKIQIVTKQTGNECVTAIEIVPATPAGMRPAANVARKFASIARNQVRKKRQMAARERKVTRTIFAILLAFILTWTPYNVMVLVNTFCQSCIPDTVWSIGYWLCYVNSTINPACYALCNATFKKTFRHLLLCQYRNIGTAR
In short: (§1)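 Intracellular calcium was tracked by fluorescence (488/540 nm) over 60 sec after compound addition to dye-loaded CHO cells expressing the receptor. Inhibitory activity used a 15 min pre-incubation before carbachol at the subtype EC80.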

[2] = target: T2, M1 muscarinic receptor (Homo sapiens, UniProt P11229); assay: Functional mobilization of intracellular calcium (FLIPR, Fluo-3), M1-CHO cells; format: cell-based; conditions: for Emax: 100% efficacy is the maximum response obtained with the Carbachol control, read-out: M1 Efficacy
T2 construct: expressed in transfected cells; host or cells: CHO cells (M1-CHO, under zeocin and G418 selection)
T2 sequence (P11229 1-460): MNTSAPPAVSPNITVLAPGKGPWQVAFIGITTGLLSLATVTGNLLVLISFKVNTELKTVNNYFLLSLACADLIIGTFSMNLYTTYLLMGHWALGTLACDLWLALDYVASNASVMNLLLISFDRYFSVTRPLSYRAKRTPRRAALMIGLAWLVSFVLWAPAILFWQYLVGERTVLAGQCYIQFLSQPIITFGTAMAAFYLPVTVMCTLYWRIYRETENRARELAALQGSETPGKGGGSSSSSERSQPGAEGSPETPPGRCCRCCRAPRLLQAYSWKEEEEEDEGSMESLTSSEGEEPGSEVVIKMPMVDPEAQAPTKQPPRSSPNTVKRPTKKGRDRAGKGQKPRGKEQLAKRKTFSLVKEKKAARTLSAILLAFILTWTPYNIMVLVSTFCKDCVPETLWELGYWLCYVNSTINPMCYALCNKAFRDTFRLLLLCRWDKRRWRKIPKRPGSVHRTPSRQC
In short: as §1

[3] = compound nos. 1-454, M4-CHO cells, calcium mobilization
[4] = compound nos. 1-454, M1-CHO cells, calcium mobilization

Structure (SMILES)	Emax ([1]; compound nos. 1-454) [%]	M4 Activity [1, 3]	Emax ([2]; compound nos. 1-454) [%]	M1 Activity [2, 4]	Emax ([1]; compound nos. 455-509) [%]	M4 Activity ([1]; compounds 455-509)	Emax ([2]; compound nos. 455-509) [%]	M1 Activity ([2]; compounds 455-509)	M4 Activity ([1]; compound nos. 1-454)	M1 Activity ([2]; compound nos. 1-454)
CCOC(=O)N1CCC(N2CCC3(CC2)C(=O)Nc2ccccc23)CC1 [compound 191]	55 to 70	+ (activity was measured to be greater than or equal to 4.0 μM)	65 to 85	+++ (activity was measured to be less than or equal to 0.7 μM)						
O=C(OC1CCCC1)N1C2CCC1CC(N1CCC3(CCc4ccccc43)CC1)C2 (centres unmarked) [compound 258]	< 55	+ (activity was measured to be greater than or equal to 4.0 μM)	65 to 85	+ (activity was measured to be greater than or equal to 3.0 μM)						
CCOC(=O)N1CCC(N2CCC3(CC2)CN(C(=O)OC(C)C)c2ccc(F)cc23)CC1 [compound 145]	> 70	+ (activity was measured to be greater than or equal to 4.0 μM)	> 85	+++ (activity was measured to be less than or equal to 0.7 μM)						
CCOC(=O)N1CCC(N2CCC3(CC2)CN(C(C)=O)c2ccc(-c4ccc(S(C)(=O)=O)cc4)cc23)CC1 [compound 177]	55 to 70	++ (activity was measured to be between 0.1 μM and 4.0 μM)	65 to 85	+++ (activity was measured to be less than or equal to 0.7 μM)						
CCOC(=O)N1C2CCC1CC(N1CCC3(CC1)CN(C(=O)c1cc(C)nn1C(C)(C)C)c1ccc(F)cc13)C2 (centres unmarked) [compound 189]	55 to 70	+ (activity was measured to be greater than or equal to 4.0 μM)	65 to 85	+++ (activity was measured to be less than or equal to 0.7 μM)						
CCCOC(=O)N1CCC(CN2CCC3(CC2)CN(C(C)=O)c2ccc(C)cc23)CC1 [compound 306]	< 55	+ (activity was measured to be greater than or equal to 4.0 μM)	< 65	+ (activity was measured to be greater than or equal to 3.0 μM)						
Cc1ccc2c(c1)C1(CCN(C3CC4CCC3C4)CC1)CN2S(=O)(=O)c1ccccc1 (centres unmarked) [compound 354]	55 to 70	+ (activity was measured to be greater than or equal to 4.0 μM)	65 to 85	+ (activity was measured to be greater than or equal to 3.0 μM)						
CC(=O)N1CC2(CCN(C3CCN(c4nc(C)cs4)CC3)CC2)c2ccccc21 [compound 475]					25 to 100	++ (activity was measured to be between 2.0 μM and 5.0 μM)	25 to 100	++ (activity was measured to be between 2.0 μM and 5.0 μM)		
CN(C)C(=O)N1CC2(CCN(C3CCN(c4nccs4)CC3)CC2)c2cc(F)ccc21 [compound 447]	55 to 70		65 to 85						+++ (activity was measured to be less than or equal to 0.1 μM)	+++ (activity was measured to be less than or equal to 0.7 μM)
Cc1ncc(N2CCC(N3CCC4(CC3)CN(C(=O)N(C)C)c3ccccc34)CC2)nc1C [compound 487]					25 to 100	++ (activity was measured to be between 2.0 μM and 5.0 μM)	> 100	+++ (activity was measured to be less than or equal to 2.0 μM)		
CCOC(=O)N1CCC(N2CCC3(CC2)CN(C(C)=O)c2ccc(C)cc23)CC1 [compound 92]	< 55	++ (activity was measured to be between 0.1 μM and 4.0 μM)	65 to 85	+++ (activity was measured to be less than or equal to 0.7 μM)						
CCCS(=O)(=O)N1CC2(CCN(C3CC4CCC(C3)N4C(=O)OCC)CC2)c2cc(F)ccc21 (centres unmarked) [compound 349]	> 70	++ (activity was measured to be between 0.1 μM and 4.0 μM)	> 85	++ (activity was measured to be between 0.7 μM and 3.0 μM)						
CC(=O)N1CC2(CCN(C3CCCCC3C)CC2)c2cc(F)ccc21 (centres unmarked) [compound 52]	55 to 70	+++ (activity was measured to be less than or equal to 0.1 μM)	> 85	+++ (activity was measured to be less than or equal to 0.7 μM)						
CCOC(=O)N1CCC(N2CCC3(CC2)CN(C(=O)OC)c2ccc(F)cc23)CC1 [compound 173]	> 70	++ (activity was measured to be between 0.1 μM and 4.0 μM)	65 to 85	+++ (activity was measured to be less than or equal to 0.7 μM)						
CC(=O)N[C@H]1CC2(CCN(C3C4CC5CC(C4)CC3C5)CC2)c2ccccc21 (some centres unmarked) [compound 4]	< 55	+ (activity was measured to be greater than or equal to 4.0 μM)	< 65	+++ (activity was measured to be less than or equal to 0.7 μM)						
Clc1ccc2c(c1)C1(CCN(C3CCCCC3)CC1)CN2 [compound 155]	> 70	+ (activity was measured to be greater than or equal to 4.0 μM)	> 85	+++ (activity was measured to be less than or equal to 0.7 μM)						
CC(=O)N1CC2(CCN(C3CC4CCC(C3)N4C(=O)OC3CCC3)CC2)c2cc(F)ccc21 (centres unmarked) [compound 174]	55 to 70	+ (activity was measured to be greater than or equal to 4.0 μM)	> 85	+++ (activity was measured to be less than or equal to 0.7 μM)						
CCOC(=O)N1CCC(N2CCC3(CC2)CN(C(=O)OCC)c2ccc(F)cc23)CC1 [compound 427]	< 55		< 65						+ (activity was measured to be greater than or equal to 4.0 μM)	++ (activity was measured to be between 0.7 μM and 3.0 μM)
CC(=O)N1CC2(CCN(C3CCN(c4cncc(C)n4)CC3)CC2)c2ccccc21 [compound 470]					25 to 100	++ (activity was measured to be between 2.0 μM and 5.0 μM)	> 100	+++ (activity was measured to be less than or equal to 2.0 μM)		
O=C(OC1CCCC1)N1C2CCC1CC(N1CCC3(CC1)C(=O)Nc1ccccc13)C2 (centres unmarked) [compound 271]	< 55	+++ (activity was measured to be less than or equal to 0.1 μM)	65 to 85	+++ (activity was measured to be less than or equal to 0.7 μM)						
CCOC(=O)N1CCC(N2CCC3(CC2)CN(C(C)=O)c2ccc(CC)cc23)CC1 [compound 137]	> 70	+ (activity was measured to be greater than or equal to 4.0 μM)	> 85	+++ (activity was measured to be less than or equal to 0.7 μM)						
COCCOC(=O)N1CC2(CCN(C3CC4CCC(C3)N4C(=O)OC(C)C)CC2)c2cc(F)ccc21 (centres unmarked) [compound 422]	< 55		< 65						+ (activity was measured to be greater than or equal to 4.0 μM)	+++ (activity was measured to be less than or equal to 0.7 μM)
COc1ccc(N2CCC(N3CCC4(CC3)CN(C(=O)N(C)C)c3ccc(F)cc34)CC2)nn1 [compound 488]					25 to 100	++ (activity was measured to be between 2.0 μM and 5.0 μM)	> 100	+ (activity was measured to be greater than or equal to 5.0 μM)		
